Source: ChEMBL document CHEMBL1166016, “Design, synthesis, and biological evaluation of novel coxsackievirus B3 inhibitors” (Bioorg Med Chem, 2010)

Tests used:
[1] = Cytotoxicity against african green monkey Vero cells after 3 days by MTS assay; assay type: cell-based; settings: chlorocebus sabaeus
Coxsackievirus B3 = assay: Antiviral activity against Coxsackievirus B3 infected in african green monkey […] assessed as inhibition of virus-induced cytopathic effect after 3 days by MTS assay; assay type: functional, organism-based; settings: for EC50: Enterovirus B, 72 h

Row | Structure (SMILES) | CC50 at 72 h [1] [µM] | EC50 (Coxsackievirus B3) [µM] | EC90 (Coxsackievirus B3) [µM]
1 | ClCC1C2COC3C2OC1C3n1cnc2c(Cl)ncnc21 (stereo not drawn) | > 50 | 0.88 | –
2 | Clc1ncnc2c1ncn2[C@H]1C[C@@H]2C=C[C@H]1C2 (relative stereo) | > 50 | 2.43 | 5.87
3 | F[C@H]1C[C@H]2C[C@@H]1C[C@@H]2n1cnc2c(Cl)ncnc21 (relative stereo) | > 50 | 0.95 | 1.96
4 | O[C@@H]1[C@@H]2C[C@H]([C@@H]1O)[C@@H](n1cnc3c(Cl)ncnc31)C2 (relative stereo) | > 50 | 2.26 | 36.52
5 | O[C@H]1C[C@H]2C[C@@H]1C[C@@H]2n1cnc2c(Cl)ncnc21 (relative stereo) | > 50 | 2.44 | –
6 | OCC1CC2CC1C(n1cnc3c(Cl)ncnc31)C2 (stereo not drawn) | > 50 | 0.98 | –
7 | Clc1ncnc2c1ncn2[C@H]1C[C@H]2C[C@@H]1c1ccccc12 (relative stereo) | > 50 | 0.66 | >50
8 | Clc1ncnc2c1ncn2[C@H]1C[C@H]2C[C@@H]1c1cc3ccccc3cc12 (relative stereo) | > 50 | > 50 | >50
9 | C[C@@H](NC(=O)c1cccc(-c2cnc(-c3cc4ccccc4cn3)[nH]2)c1)c1ccc(F)cc1 | > 50 | 1.2 | –
10 | FC1(F)C[C@H]2C[C@H]1C[C@@H]2n1cnc2c(Cl)ncnc21 (relative stereo) | > 50 | 1 | –
11 | Clc1ncnc2c1ncn2[C@H]1C2C3C[C@H]1C[C@H]32 (relative stereo) | 43.9 | 1.52 | –
12 | FC1(F)C[C@@H]2C[C@@H](n3cnc4c(Cl)ncnc43)[C@H]1C2 (relative stereo) | > 50 | 1.16 | 34.4
13 | O[C@@H]1C[C@H]2C[C@@H]1[C@@H](n1cnc3c(Cl)ncnc31)C2 (relative stereo) | 47.9 | 1.1 | –
14 | O=C1C[C@H]2C[C@@H]1C[C@@H]2n1cnc2c(Cl)ncnc21 (relative stereo) | > 50 | 0.9 | 1.78
15 | Clc1ncnc2c1ncn2[C@@H]1[C@@H]2C[C@@H]3[C@H]1CO[C@@H]3C2 (relative stereo) | > 50 | 1 | –
16 | Clc1ncnc2c1ncn2[C@H]1[C@@H]2C[C@@H]3CO[C@H]1[C@H]3C2 (relative stereo) | > 50 | 1.27 | –
17 | Clc1ncnc2c1ncn2[C@H]1C[C@H]2C[C@@H]1[C@@H]1CCC[C@H]21 (relative stereo) | 43.4 | 1.9 | –

Row | Structure (SMILES) | CC50 at 72 h [1] [µM] | EC50 (Coxsackievirus B3) [µM] | EC90 (Coxsackievirus B3) [µM]
18 | CC1(C)[C@@H]2CC[C@@]1(C)[C@H](n1cnc3c(Cl)ncnc31)C2 (relative stereo) | > 50 | 3.47 | 36.26
19 | Clc1ncnc2c1ncn2C[C@H]1C[C@@H]2C=C[C@H]1C2 (relative stereo) | > 50 | 3.58 | 8.49
20 | O=C1C[C@@H]2C[C@H]1[C@H](n1cnc3c(Cl)ncnc31)C2 (relative stereo) | > 50 | 1.57 | –
21 | ClCC1C2COC3C2CC1C3n1cnc2c(Cl)ncnc21 (stereo not drawn) | > 50 | 1 | –
22 | OCC1CC2CC1CC2n1cnc2c(Cl)ncnc21 (stereo not drawn) | > 50 | 0.91 | –
23 | Clc1ncnc2c1ncn2[C@H]1C[C@H]2C[C@@H]1C[C@@H]2c1ccccc1 (relative stereo) | 17 | 5.72 | –
24 | CC1(C)[C@H]2CC[C@H](C2)[C@@H]1n1cnc2c(Cl)ncnc21 (relative stereo) | > 50 | 10.9 | >50
25 | Clc1ncnc2c1ncn2[C@H]1C[C@H]2C[C@@H]1C[C@@H]2n1cnc2c(Cl)ncnc21 (relative stereo) | > 50 | 22.5 | –
26 | Clc1ncnc2c1ncn2[C@H]1C[C@H]2C[C@@H]1[C@H](c1ccccc1)C2 (relative stereo) | 13.4 | 2.98 | –
27 | OCC1C2COC3C2OC1C3n1cnc2c(Cl)ncnc21 (stereo not drawn) | > 50 | 1.86 | –
28 | O[C@@H]1C[C@H]2C[C@@H]1[C@H](n1cnc3c(Cl)ncnc31)C2 (relative stereo) | > 50 | 1.3 | –
29 | O[C@H]1C[C@@H]2C[C@@H]1C[C@H]2n1cnc2c(Cl)ncnc21 (relative stereo) | > 50 | 1.05 | –
30 | Clc1ncnc2c1ncn2[C@@H]1CC2CC1[C@@H](n1cnc3c(Cl)ncnc31)C2 | > 50 | 7.83 | –
31 | OCC1C2COC3C2CC1C3n1cnc2c(Cl)ncnc21 (stereo not drawn) | > 50 | 1.13 | –
32 | Clc1ncnc2c1ncn2C[C@@H]1C[C@H]2CC[C@@H]1C2 (relative stereo) | > 50 | 3.83 | 9.43
33 | Clc1ncnc2c1ncn2[C@@H]1C[C@@H]2C[C@H]1[C@@H]1O[C@@H]21 (relative stereo) | > 50 | 1.03 | 3.46
